Measured values: ChEMBL document CHEMBL3352686, “Development of synthetic lethality anticancer therapeutics” (J Med Chem, 2014)
Each block holds one compound with its values, some of them ahead of it.

Key:
[1] = biological target: Serine/threonine-protein kinase mTOR (Homo sapiens, UniProt P42345); assay: Inhibition of mTOR (unknown origin)
[2] = biological target: Serine/threonine-protein kinase ATR (Homo sapiens, UniProt Q13535); assay: Inhibition of ATR (unknown origin)
[3] = biological target: DNA-dependent protein kinase catalytic subunit (Homo sapiens, UniProt P78527); assay: Inhibition of DNAPK (unknown origin)
[4] = Inhibition of PI3K (unknown origin); parameters: species or system Homo sapiens
[5] = biological target: Serine-protein kinase ATM (Homo sapiens, UniProt Q13315); assay: Inhibition of ATM (unknown origin)
Homo sapiens [6] = species: Homo sapiens; assay: Toxicity in patient with refractory acute leukemia; format: organism-based; conditions: in vivo
[7] = Cmax in BRCA mutation carrying cancer patient with sporadic cancer; conditions: human, in vivo
[8] = Terminal half life in BRCA mutation carrying cancer patient with sporadic cancer; conditions: human, in vivo
Homo sapiens [9] = assay: Toxicity in advanced breast cancer patient with BRCA1/2 mutations assessed as maximum tolerated dose for twice daily dosing; format: organism-based; conditions: in vivo
[10] = Cmax in advanced breast cancer patient with BRCA1/2 mutations at 400 mg dosed twice daily; format: ADME, organism-based; parameters: dose 400 mg; conditions: human, in vivo
Homo sapiens [11] = assay: In vivo inhibition of PARP activity in peripheral blood mononuclear cells of advanced breast cancer patient with BRCA1/2 mutations at 400 mg dosed twice daily; format: functional
Homo sapiens [12] = assay: In vivo inhibition of PARP activity in tumor tissue of advanced breast cancer patient with BRCA1/2 mutations at 400 mg dosed twice daily; format: functional
[13] = Terminal half life in advanced breast cancer patient with BRCA1/2 mutations at 400 mg dosed twice daily; format: ADME, organism-based; conditions: human, in vivo, read-out: beta t1/2 (converted)
Homo sapiens [14] = species: Homo sapiens; assay: Toxicity in patient with solid tumor co-treated with 500 mg/m2 pemetrexed; format: organism-based; conditions: in vivo
Homo sapiens [15] = assay: In vivo inhibition of PARP activity in peripheral blood mononuclear cells of advanced solid tumor patient at 12 mg/m2 co-treated with rucaparib and temzolomide; format: functional
[16] = Half life in refractory solid tumor and lymphoma patient; conditions: human, in vivo
Homo sapiens [17] = assay: Toxicity in refractory solid tumor and lymphoma patient at 10 mg dosed twice daily on days 1 to 5 in 21-day cycles co-treated with 50 mg cyclophosphamide once daily administered on days 1 to 5; format: organism-based; conditions: in vivo
Homo sapiens [18] = assay: Toxicity in refractory solid tumor and lymphoma patient at 10 mg dosed twice daily on days 1 to 5 in 21-day cycles co-treated with 0.6 mg/m2/day, iv topotecan administered on days 1 to 5; format: organism-based; conditions: in vivo
Homo sapiens [19] = assay: In vivo inhibition of PARP activity in peripheral blood mononuclear cells of refractory solid tumor and lymphoma patient at 10 mg dosed twice daily on days 1 to 5 in 21-day cycles co-treated with 50 mg cyclophosphamide once daily administered on days 1 to 5; format: functional
Homo sapiens [20] = assay: In vivo inhibition of PARP activity in tumor tissue of refractory solid tumor and lymphoma patient at 10 mg dosed twice daily on days 1 to 5 in 21-day cycles co-treated with 50 mg cyclophosphamide once daily administered on days 1 to 5; format: functional

Serine/threonine-protein kinase ATR, sequence (Q13535 whole entry): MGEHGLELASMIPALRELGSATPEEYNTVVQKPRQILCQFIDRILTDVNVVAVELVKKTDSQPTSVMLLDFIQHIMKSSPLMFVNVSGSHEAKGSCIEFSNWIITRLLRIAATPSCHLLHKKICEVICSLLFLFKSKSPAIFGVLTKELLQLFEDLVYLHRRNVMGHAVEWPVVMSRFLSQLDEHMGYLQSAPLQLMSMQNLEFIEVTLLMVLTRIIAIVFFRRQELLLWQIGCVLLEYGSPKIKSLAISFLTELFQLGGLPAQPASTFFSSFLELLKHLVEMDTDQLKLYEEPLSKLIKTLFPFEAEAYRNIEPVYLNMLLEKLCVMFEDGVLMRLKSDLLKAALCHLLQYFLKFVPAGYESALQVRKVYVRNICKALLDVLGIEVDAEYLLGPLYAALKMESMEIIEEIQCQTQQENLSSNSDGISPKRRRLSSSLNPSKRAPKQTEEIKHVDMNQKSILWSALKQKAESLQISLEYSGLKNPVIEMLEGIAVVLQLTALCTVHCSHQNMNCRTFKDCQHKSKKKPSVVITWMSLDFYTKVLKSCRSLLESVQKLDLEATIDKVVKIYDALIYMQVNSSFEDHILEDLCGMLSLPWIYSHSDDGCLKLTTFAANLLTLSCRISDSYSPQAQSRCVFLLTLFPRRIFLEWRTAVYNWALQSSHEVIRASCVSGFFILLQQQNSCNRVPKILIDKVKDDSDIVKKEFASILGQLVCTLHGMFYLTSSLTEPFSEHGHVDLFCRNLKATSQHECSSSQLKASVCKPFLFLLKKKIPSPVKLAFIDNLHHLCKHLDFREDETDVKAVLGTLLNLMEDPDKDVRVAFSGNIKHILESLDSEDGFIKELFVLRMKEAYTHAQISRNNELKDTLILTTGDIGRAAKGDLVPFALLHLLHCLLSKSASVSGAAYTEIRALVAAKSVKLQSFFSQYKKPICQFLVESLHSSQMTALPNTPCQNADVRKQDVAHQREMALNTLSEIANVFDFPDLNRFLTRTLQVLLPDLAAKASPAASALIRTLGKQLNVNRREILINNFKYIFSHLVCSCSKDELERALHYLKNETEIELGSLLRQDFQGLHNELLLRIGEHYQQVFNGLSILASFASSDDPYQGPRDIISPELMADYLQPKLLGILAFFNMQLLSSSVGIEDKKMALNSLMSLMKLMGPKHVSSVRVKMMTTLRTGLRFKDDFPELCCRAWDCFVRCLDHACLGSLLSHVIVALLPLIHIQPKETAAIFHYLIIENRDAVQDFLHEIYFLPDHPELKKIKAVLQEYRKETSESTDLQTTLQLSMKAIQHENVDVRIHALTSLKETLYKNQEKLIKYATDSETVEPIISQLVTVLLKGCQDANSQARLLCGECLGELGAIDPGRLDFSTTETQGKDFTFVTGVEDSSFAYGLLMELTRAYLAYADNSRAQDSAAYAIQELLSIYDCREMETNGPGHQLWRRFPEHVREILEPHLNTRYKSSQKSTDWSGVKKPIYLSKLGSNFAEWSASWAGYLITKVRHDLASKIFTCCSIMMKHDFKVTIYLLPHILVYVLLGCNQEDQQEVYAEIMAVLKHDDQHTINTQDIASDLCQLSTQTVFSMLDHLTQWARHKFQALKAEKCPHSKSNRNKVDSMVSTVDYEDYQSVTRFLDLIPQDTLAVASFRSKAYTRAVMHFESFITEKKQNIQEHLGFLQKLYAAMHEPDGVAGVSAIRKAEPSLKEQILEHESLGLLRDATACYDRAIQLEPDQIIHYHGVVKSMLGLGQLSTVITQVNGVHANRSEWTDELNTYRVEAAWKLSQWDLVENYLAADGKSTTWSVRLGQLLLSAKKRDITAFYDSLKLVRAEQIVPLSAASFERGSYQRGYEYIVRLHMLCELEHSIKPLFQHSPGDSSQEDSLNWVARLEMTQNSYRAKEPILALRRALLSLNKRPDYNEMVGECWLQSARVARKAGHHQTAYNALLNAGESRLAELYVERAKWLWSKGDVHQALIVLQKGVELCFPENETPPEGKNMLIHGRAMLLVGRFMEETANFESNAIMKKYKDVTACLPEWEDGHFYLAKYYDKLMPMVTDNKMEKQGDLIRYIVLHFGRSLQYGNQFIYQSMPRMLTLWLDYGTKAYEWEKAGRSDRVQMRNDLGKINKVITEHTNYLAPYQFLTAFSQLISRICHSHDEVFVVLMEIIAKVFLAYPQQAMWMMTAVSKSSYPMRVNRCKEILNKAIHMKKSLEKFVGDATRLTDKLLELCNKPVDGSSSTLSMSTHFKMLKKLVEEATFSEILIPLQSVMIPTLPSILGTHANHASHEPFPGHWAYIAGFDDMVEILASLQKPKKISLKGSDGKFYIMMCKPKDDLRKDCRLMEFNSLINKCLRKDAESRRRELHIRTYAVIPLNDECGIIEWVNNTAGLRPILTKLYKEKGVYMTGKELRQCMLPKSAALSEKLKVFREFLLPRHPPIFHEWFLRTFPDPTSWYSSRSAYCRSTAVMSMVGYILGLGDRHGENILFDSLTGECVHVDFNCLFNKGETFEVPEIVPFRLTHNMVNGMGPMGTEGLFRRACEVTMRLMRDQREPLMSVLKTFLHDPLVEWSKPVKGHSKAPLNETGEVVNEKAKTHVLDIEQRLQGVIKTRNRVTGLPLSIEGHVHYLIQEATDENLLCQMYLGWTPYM

IC50 [1]: 0.0006 µM
IC50 [2]: 0.014 µM
IC50 [3]: > 0.036 µM
IC50 [4]: > 0.036 µM
IC50 [5]: > 0.036 µM
Compound: CC(C)(C#N)c1ccc(N2C(=O)OCc3cnc4ccc(-c5cnc6ccccc6c5)cc4c32)cc1

Compound: Cn1cc(C2C=NN3C(N)=C(Br)C([C@@H]4CCCNC4)=NC23)cn1 (stereo not given in full)
MTD (Homo sapiens [6]): 56 mg/m2

Cmax [7]: 2 µM
half-life [8]: 36.4 h
Compound: NC(=O)c1cccc2cn(-c3ccc([C@@H]4CCCNC4)cc3)nc12 [NIRAPARIB]

Compound: O=C(c1cc(Cc2n[nH]c(=O)c3ccccc23)ccc1F)N1CCN(C(=O)C2CC2)CC1 [OLAPARIB]
MTD (Homo sapiens [9]): 400 mg
Cmax [10]: 2.6 µg/mL
inhibition (INH) (Homo sapiens [11]): 50%
inhibition (INH) (Homo sapiens [12]): 70%
half-life [13]: 7 h

Compound: Cc1cnc(NC(=O)Nc2cc(Br)c(C)cc2OC[C@@H]2CNCCO2)cn1 [RABUSERTIB]
MTD (Homo sapiens [14]): 150 mg/m2

Compound: CNCc1ccc(-c2[nH]c3cc(F)cc4c3c2CCNC4=O)cc1 [RUCAPARIB]
inhibition in vivo at 12 mg/m2 (Homo sapiens [15]): 74%

Compound: C[C@]1(c2nc3c(C(N)=O)cccc3[nH]2)CCCN1 [VELIPARIB]
half-life [16]: 5 h
MTD (Homo sapiens [17]): 60 mg
MTD (Homo sapiens [18]): 60 mg
inhibition (INH) (Homo sapiens [19]): 50%
inhibition (INH) (Homo sapiens [20]): 80%
